The results in this text go back to ChEMBL document CHEMBL3734715, “Synthesis and antiproliferativeactivity of new vinca alkaloids containing an α,β-unsaturated aromatic side chain” (Bioorg Med Chem Lett, 2015).

What all share (type): functional, cell-based
In one assay the test system is Lu1. Kind of assay: Cytotoxicity against human Lu1 cells after 72 hrs by SRB assay. As to conditions: Lu1, 72 h. On the technique in general: The SRB assay estimates cell density from bound dye.
A further assay relates to HepG2. Nature of the assay: Cytotoxicity against human HepG2 cells after 72 hrs by SRB assay. Conditions: HepG2, 72 h.
In the next assay the test system is KB. Nature of the assay: Cytotoxicity against human KB cells after 72 hrs by SRB assay.
For another assay, the system named is MCF7. Kind of assay: Cytotoxicity against human MCF7 cells after 72 hrs by SRB assay. As to conditions: MCF7, 72 h.

Where a name gives a salt, the structure may show the parent alone.

Broadly, the IC50 is the point on the concentration scale where inhibition reaches its midpoint. A higher IC50 goes with lower potency. `CC[C@]1(O)C[C@@H]2C[C@](C(=O)OC)(c3cc4c(cc3OC)N(C=O)[C@H]3[C@@](O)(C(=O)OC)[C@H](OC(C)=O)[C@]5(CC)C=CCN6CC[C@]43[C@@H]65)c3[nH]c4ccccc4c3CC[N@+](CC(=O)/C=C/c3ccc(Cl)cc3)(C2)C1`: the IC50 with Lu1 turned out to be 13.8 µM; in the assay on HepG2, 14.2 µM; with KB, 0.03 µM; with MCF7 it was 10.9 µM.
The corresponding values for `CC[C@]1(O)C[C@@H]2C[C@](C(=O)OC)(c3cc4c(cc3OC)N(C)[C@H]3[C@@](O)(C(=O)OC)[C@H](OC(C)=O)[C@]5(CC)C=CCN6CC[C@]43[C@@H]65)c3[nH]c4ccccc4c3CC[N@+](CC(=O)/C=C/c3ccc(Cl)cc3)(C2)C1` are 4.25 µM, 7.77 µM, 0.06 µM and 4.89 µM.
On to `CCC1=C[C@@H]2C[C@](C(=O)OC)(c3c(OC)cc(N)cc3OC)c3[nH]c4ccccc4c3CC[N@@+](CC(=O)/C=C/c3ccc4ccccc4c3)(C1)C2`, for which the IC50 with Lu1 was 8.34 µM; in the assay with HepG2, 10.9 µM; in the assay on KB, 4.16 µM; with MCF7, 11.9 µM.
Turning to `CC[C@]1(O)C[C@@H]2C[C@](C(=O)OC)(c3cc4c(cc3OC)N(C)[C@H]3[C@@](O)(C(=O)OC)[C@H](OC(C)=O)[C@]5(CC)C=CCN6CC[C@]43[C@@H]65)c3[nH]c4ccccc4c3CC[N@+](CC(=O)/C=C/c3ccc(O)c(OC)c3)(C2)C1`, the IC50 in the assay on Lu1 worked out at 4.8 µM; in the assay with HepG2, 7.23 µM; in the assay on KB, 1.69 µM; in the assay on MCF7, 12.5 µM.
Consider `CCC1=C[C@@H]2C[C@](C(=O)OC)(c3cc4c(cc3OC)N(C)[C@H]3[C@@](O)(C(=O)OC)[C@H](OC(C)=O)[C@]5(CC)C=CCN6CC[C@]43[C@@H]65)c3[nH]c4ccccc4c3CC[N@@+](CC(=O)/C=C/c3ccc(O)c(OC)c3)(C1)C2`, for which the IC50 came to 57.5 µM in the assay with Lu1, 51.5 µM with HepG2, 0.64 µM in the assay on KB and 50.5 µM in the assay on MCF7.
On to `CC[C@]1(O)C[C@H]2CN(CCc3c([nH]c4ccccc34)[C@@](C(=O)OC)(c3cc4c(cc3OC)N(C=O)[C@H]3[C@@](O)(C(=O)OC)[C@H](OC(C)=O)[C@]5(CC)C=CCN6CC[C@]43[C@@H]65)C2)C1` [VINCRISTINE SULFATE], for which the IC50 in the assay with Lu1 came to 0.48 µM; in the assay with HepG2, 0.69 µM; with KB, 0.02 µM; in the assay with MCF7, 0.51 µM.
As for `CCC1=C[C@@H]2C[C@](C(=O)OC)(c3cc4c(cc3OC)N(C)[C@H]3[C@@](O)(C(=O)OC)[C@H](OC(C)=O)[C@]5(CC)C=CCN6CC[C@]43[C@@H]65)c3[nH]c4ccccc4c3CC[N@@+](CC(=O)/C=C/c3ccc(Cl)cc3)(C1)C2`, the IC50 turned out to be 1.31 µM in the assay on Lu1, 1.75 µM in the assay with HepG2, 0.28 µM in the assay on KB and 1.83 µM with MCF7.
With `CC[C@]1(O)C[C@@H]2C[C@](C(=O)OC)(c3cc4c(cc3OC)N(C=O)[C@H]3[C@@](O)(C(=O)OC)[C@H](OC(C)=O)[C@]5(CC)C=CCN6CC[C@]43[C@@H]65)c3[nH]c4ccccc4c3CC[N@+](CC(=O)/C=C/c3ccc(O)c(OC)c3)(C2)C1`, the concentration for half-maximal inhibition (IC50) was found to be 3.45 µM in the assay on Lu1, 2.44 µM in the assay with HepG2, 1.67 µM with KB and 3.08 µM in the assay with MCF7.
For the compound `CCC1=C[C@@H]2C[C@](C(=O)OC)(c3cc4c(cc3OC)N(C)[C@H]3[C@@](O)(C(=O)OC)[C@H](OC(C)=O)[C@]5(CC)C=CCN6CC[C@]43[C@@H]65)c3[nH]c4ccccc4c3CC[N@@+](CC(=O)/C=C/c3ccc4ccccc4c3)(C1)C2`, the IC50 in the assay with Lu1 came out at 3.71 µM; with HepG2, 4.31 µM; in the assay with KB, 0.64 µM; in the assay on MCF7, 4.82 µM.
`CCC1=C[C@H]2CN(CCc3c([nH]c4ccccc34)[C@@](C(=O)OC)(c3cc4c(cc3OC)N(C)[C@H]3[C@@](O)(C(=O)OC)[C@H](OC(C)=O)[C@]5(CC)C=CCN6CC[C@]43[C@@H]65)C2)C1`: the IC50 came to 5.98 µM in the assay with Lu1, 4.53 µM with HepG2, 2.06 µM in the assay on KB and 4.63 µM in the assay with MCF7.
Turning to `CC[C@]1(O)C[C@H]2CN(CCc3c([nH]c4ccccc34)[C@@](C(=O)OC)(c3cc4c(cc3OC)N(C)[C@H]3[C@@](O)(C(=O)OC)[C@H](OC(C)=O)[C@]5(CC)C=CCN6CC[C@]43[C@@H]65)C2)C1`, the IC50 with Lu1 came to 0.47 µM; with HepG2, 0.34 µM; in the assay with KB, 0.02 µM; in the assay with MCF7, 0.23 µM.
On the same counts, the results for `CCC1=C[C@@H]2C[C@](C(=O)OC)(c3c(OC)cc(N)cc3OC)c3[nH]c4ccccc4c3CC[N@@+](CC(=O)/C=C/c3ccc(O)c(OC)c3)(C1)C2` are 79 µM, 86.8 µM, 9.11 µM and 94.5 µM.
For the compound `CC[C@]1(O)C[C@@H]2C[C@](C(=O)OC)(c3cc4c(cc3OC)N(C=O)[C@H]3[C@@](O)(C(=O)OC)[C@H](OC(C)=O)[C@]5(CC)C=CCN6CC[C@]43[C@@H]65)c3[nH]c4ccccc4c3CC[N@+](CC(=O)/C=C/c3ccc4ccccc4c3)(C2)C1`, the IC50 with Lu1 came to 12 µM; with HepG2 it was 7.94 µM; in the assay with KB, 0.08 µM; with MCF7, 11 µM.
Take `CC[C@]1(O)C[C@@H]2C[C@](C(=O)OC)(c3cc4c(cc3OC)N(C)[C@H]3[C@@](O)(C(=O)OC)[C@H](OC(C)=O)[C@]5(CC)C=CCN6CC[C@]43[C@@H]65)c3[nH]c4ccccc4c3CC[N@+](CC(=O)/C=C/c3ccc4ccccc4c3)(C2)C1`: the IC50 in the assay on Lu1 came out at 15.1 µM; in the assay on HepG2 it was 18.1 µM; in the assay on KB it was 0.03 µM; with MCF7 it was 13.7 µM.
With `Cc1c2ccncc2c(C)c2c1[nH]c1ccccc12` [ELLIPTECINE], the IC50 came to 2.31 µM in the assay with Lu1, 2.07 µM in the assay on HepG2, 1.66 µM in the assay with KB and 1.54 µM in the assay on MCF7.
With `CCC1=C[C@@H]2C[C@](C(=O)OC)(c3c(OC)cc(N)cc3OC)c3[nH]c4ccccc4c3CC[N@@+](CC(=O)/C=C/c3ccc(Cl)cc3)(C1)C2`, the IC50 was 13.8 µM with Lu1, 20.2 µM in the assay on HepG2, 6.12 µM in the assay with KB and 17.9 µM in the assay with MCF7.
For the compound `CCC1=C[C@H]2CN(CCc3c([nH]c4ccccc34)[C@@](C(=O)OC)(c3c(OC)cc(N)cc3OC)C2)C1`, the IC50 in the assay with Lu1 turned out to be 19.4 µM; with HepG2, 20.4 µM; with KB, 11.5 µM; with MCF7, 21 µM.
